Results taken from ChEMBL document CHEMBL4834498, “Positive allosteric modulators (PAMs) of the group II metabotropic glutamate receptors: Design, synthesis, and evaluation as ex-vivo tool compounds” (Bioorg Med Chem Lett, 2021).
The source made the active and inactive calls. The calls are words filed in the database; no cut-off is given here.

Columns and labels:
[1] = target: Metabotropic glutamate receptor 2 (Rattus norvegicus, UniProt P31421); assay: Positive allosteric modulator activity at rat mGlu2 receptor transfected in GIRK channel overexpressing cells assessed as potentiation of glutamate-induced response by thallium mobilization assay
[2] = target: Metabotropic glutamate receptor 3 (Rattus norvegicus, UniProt P31422); assay: Positive allosteric modulator activity at rat mGlu3 receptor transfected in GIRK channel overexpressing cells assessed as potentiation of glutamate-induced response by thallium mobilization assay
[3] = target: Metabotropic glutamate receptor 3 (Rattus norvegicus) (UniProt P31422); assay: Positive allosteric modulator activity at rat mGlu3 receptor transfected in GIRK channel overexpressing cells assessed as potentiation of glutamate-induced response by thallium mobilization assay relative to glutamate; design: concentration or dose not given beside the values
[4] = target: Metabotropic glutamate receptor 2 (Rattus norvegicus) (UniProt P31421); assay: Positive allosteric modulator activity at rat mGlu2 receptor transfected in GIRK channel overexpressing cells assessed as potentiation of glutamate -induced response by thallium mobilization assay relative to glutamate; design: concentration or dose not given beside the values
[5] = target: Metabotropic glutamate receptor 3 (Mus musculus) (UniProt Q9QYS2); assay: Positive allosteric modulator activity at mGlu3 receptor in CaMK2-Cre::GCaMP6s transgenic mouse PFC pyramidal cells assessed as potentiation of LY379268-induced Ca2+ mobilization at 10 uM in presence of mGlu2 negative allosteric modulator, VU6001966 by calcium imagining analysis; assay type: functional; conditions: filed as positive allosteric modulator
[6] = filed as positive allosteric modulator

Chain of Metabotropic glutamate receptor 3 (Rattus norvegicus) (P31422 23-879 limits assumed): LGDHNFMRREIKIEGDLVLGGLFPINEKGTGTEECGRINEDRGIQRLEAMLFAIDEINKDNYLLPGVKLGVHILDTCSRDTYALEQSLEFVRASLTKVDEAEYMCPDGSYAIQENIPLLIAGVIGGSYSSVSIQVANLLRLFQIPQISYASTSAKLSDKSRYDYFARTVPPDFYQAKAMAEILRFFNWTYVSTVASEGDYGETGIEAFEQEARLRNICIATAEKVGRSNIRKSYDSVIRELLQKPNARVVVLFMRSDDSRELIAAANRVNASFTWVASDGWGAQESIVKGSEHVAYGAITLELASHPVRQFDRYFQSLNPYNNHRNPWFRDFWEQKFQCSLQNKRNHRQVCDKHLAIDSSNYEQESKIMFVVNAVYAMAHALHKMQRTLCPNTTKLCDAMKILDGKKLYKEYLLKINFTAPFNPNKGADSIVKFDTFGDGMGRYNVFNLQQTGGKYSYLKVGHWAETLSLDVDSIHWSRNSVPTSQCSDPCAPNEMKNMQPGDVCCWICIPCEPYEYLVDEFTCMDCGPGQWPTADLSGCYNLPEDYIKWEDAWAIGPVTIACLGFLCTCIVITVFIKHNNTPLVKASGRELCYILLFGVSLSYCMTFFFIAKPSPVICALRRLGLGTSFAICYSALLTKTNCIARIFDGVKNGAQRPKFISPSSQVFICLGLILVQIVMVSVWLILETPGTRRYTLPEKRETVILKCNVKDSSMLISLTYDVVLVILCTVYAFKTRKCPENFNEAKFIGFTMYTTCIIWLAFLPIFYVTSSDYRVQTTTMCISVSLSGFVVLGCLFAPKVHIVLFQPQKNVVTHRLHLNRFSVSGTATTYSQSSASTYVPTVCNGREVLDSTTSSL
Chain of Metabotropic glutamate receptor 3 (P31422 whole entry): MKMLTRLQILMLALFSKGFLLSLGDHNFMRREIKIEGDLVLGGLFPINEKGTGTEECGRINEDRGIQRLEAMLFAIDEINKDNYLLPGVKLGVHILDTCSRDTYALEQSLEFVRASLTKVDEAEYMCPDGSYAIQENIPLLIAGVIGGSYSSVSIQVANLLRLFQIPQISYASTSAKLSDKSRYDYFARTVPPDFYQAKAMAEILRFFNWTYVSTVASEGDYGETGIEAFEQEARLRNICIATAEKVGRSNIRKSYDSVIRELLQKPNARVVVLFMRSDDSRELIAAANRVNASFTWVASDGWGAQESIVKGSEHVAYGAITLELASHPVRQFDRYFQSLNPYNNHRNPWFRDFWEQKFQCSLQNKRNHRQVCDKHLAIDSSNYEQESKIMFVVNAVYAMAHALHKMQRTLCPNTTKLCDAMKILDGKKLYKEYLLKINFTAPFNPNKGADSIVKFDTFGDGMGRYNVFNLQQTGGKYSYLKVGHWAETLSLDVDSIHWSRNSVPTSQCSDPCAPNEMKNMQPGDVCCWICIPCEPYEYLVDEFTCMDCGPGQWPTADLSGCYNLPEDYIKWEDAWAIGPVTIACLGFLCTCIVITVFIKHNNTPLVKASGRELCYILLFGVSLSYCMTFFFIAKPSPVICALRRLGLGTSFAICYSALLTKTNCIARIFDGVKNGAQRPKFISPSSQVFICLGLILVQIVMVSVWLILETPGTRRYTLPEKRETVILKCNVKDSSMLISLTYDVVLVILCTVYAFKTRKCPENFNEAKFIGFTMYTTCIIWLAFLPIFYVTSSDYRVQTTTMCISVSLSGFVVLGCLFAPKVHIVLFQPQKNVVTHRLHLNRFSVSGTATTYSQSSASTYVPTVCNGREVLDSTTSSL
Chain of Metabotropic glutamate receptor 2 (Rattus norvegicus) (P31421 19-872 limits assumed): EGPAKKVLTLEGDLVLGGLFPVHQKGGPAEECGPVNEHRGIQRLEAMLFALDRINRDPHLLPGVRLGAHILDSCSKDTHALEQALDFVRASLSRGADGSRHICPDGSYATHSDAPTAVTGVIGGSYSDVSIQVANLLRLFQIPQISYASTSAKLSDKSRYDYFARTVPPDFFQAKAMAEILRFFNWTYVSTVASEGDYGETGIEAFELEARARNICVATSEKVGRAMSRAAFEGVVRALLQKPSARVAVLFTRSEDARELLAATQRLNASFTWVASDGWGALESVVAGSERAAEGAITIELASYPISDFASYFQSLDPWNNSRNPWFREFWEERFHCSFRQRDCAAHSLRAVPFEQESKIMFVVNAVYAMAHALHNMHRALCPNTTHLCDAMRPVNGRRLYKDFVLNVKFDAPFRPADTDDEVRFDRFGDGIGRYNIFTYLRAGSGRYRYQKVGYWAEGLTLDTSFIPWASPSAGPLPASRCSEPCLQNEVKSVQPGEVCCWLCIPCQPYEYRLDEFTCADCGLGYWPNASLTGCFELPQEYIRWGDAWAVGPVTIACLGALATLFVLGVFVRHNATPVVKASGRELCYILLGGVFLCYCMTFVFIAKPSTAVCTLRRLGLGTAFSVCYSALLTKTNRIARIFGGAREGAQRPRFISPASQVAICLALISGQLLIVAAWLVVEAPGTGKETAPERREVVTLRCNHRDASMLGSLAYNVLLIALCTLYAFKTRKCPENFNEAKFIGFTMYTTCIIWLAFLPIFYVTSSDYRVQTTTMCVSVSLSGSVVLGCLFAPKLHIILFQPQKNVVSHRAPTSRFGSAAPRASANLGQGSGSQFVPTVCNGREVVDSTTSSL
Chain of Metabotropic glutamate receptor 2 (P31421 whole entry): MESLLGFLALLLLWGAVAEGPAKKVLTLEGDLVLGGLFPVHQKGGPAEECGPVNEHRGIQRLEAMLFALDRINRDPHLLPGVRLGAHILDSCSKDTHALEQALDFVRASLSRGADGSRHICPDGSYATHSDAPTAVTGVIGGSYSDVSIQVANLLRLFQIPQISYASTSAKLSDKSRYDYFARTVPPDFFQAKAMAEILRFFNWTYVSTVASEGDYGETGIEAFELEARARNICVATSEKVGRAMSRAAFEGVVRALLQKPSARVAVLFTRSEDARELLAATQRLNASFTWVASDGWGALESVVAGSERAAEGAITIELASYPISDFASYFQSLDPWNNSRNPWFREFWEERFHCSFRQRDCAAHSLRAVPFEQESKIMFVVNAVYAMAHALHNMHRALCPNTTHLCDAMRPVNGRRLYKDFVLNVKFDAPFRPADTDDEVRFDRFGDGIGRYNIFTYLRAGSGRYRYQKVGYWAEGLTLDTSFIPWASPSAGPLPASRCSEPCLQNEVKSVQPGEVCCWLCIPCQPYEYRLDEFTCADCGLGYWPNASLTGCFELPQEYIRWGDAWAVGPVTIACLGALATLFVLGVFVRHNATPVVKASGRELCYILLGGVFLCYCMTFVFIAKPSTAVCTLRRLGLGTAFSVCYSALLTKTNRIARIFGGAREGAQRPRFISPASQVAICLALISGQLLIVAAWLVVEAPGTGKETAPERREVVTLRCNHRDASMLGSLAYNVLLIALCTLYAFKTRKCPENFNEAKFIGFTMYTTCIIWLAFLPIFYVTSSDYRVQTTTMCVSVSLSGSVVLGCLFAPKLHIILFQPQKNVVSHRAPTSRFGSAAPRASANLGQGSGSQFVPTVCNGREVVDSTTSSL
Chain of Metabotropic glutamate receptor 3 (Mus musculus) (Q9QYS2 whole entry): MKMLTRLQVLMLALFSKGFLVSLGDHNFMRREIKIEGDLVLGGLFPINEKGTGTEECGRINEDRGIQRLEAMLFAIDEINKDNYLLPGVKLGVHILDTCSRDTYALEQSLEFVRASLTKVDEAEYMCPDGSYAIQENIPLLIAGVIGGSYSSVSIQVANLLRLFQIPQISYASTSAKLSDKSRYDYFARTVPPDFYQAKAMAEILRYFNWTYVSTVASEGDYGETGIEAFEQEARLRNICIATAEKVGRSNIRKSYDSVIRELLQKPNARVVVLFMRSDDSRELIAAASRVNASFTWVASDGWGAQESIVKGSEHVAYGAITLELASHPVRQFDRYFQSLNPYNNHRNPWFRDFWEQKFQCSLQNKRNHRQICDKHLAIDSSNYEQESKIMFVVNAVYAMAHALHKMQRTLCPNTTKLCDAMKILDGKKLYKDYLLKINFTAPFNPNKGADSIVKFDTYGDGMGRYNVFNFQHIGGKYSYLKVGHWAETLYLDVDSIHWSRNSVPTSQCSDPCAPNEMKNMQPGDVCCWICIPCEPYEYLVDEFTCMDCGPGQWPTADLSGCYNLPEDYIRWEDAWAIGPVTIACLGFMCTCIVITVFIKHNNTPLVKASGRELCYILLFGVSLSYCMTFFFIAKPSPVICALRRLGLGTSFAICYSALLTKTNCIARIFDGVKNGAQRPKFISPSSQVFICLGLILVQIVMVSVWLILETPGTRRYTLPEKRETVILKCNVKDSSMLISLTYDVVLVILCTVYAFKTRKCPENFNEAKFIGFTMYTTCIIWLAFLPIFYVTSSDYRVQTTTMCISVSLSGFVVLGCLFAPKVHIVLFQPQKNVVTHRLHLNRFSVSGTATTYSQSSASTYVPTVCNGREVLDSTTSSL

EC50 ([1]; read-out: EC50)	EC50 ([2]; read-out: EC50)	Activity [3, 6]	Activity [4, 6]	EC50 [1]	EC50 [2]	Activity [3]	Activity [4]	Activity [5]	Compound
102 nM	703 nM	102%	116%	–	–	–	–	–	COc1cc(OCCCCOc2ccc(C(=O)CC(C)(C)C)c(O)c2C)cc(C(=O)O)c1
75 nM	1230 nM	98%	114%	–	–	–	–	–	Cc1c(OCCCCOc2ccc(C(=O)O)cc2F)ccc(C(=O)CC(C)(C)C)c1O
13 nM	490 nM	99%	116%	–	–	–	–	–	COc1ccc(OCCCCOc2ccc(C(=O)CC(C)(C)C)c(O)c2C)cc1C(=O)O
164 nM	476 nM	103%	110%	–	–	–	–	Active	CNC(=O)c1cc(OCCCCOc2ccc(C(=O)CC(C)(C)C)c(O)c2C)ccc1F
210 nM	309 nM	88%	90%	–	–	–	–	–	Cc1ccc(OCCCCOc2ccc(C(=O)CC(C)(C)C)c(O)c2C)cc1C(=O)O
–	3950 nM	74%	–	–	–	–	–	–	Cc1c(OCC(C)COc2cc(C(=O)O)ccc2F)ccc(C(=O)CC(C)(C)C)c1O (single isomer, unassigned)
3810 nM	–	–	60%	–	Not Active	inactive	–	–	Cc1c(OCCCCOc2ccc(F)c(C(=O)N(C)C)c2)ccc(C(=O)CC(C)(C)C)c1O
490 nM	180 nM	91%	120%	–	–	–	–	–	Cc1c(OCCCCOc2cncc(C(=O)O)c2)ccc(C(=O)CC(C)(C)C)c1O
28 nM	79 nM	103%	116%	–	–	–	–	–	Cc1ncc(OCCCCOc2ccc(C(=O)CC(C)(C)C)c(O)c2C)cc1C(=O)O
80 nM	1110 nM	107%	108%	–	–	–	–	–	Cc1c(OCCCCOc2ccc(C(=O)O)c(F)c2)ccc(C(=O)CC(C)(C)C)c1O
446 nM	1520 nM	97%	113%	–	–	–	–	–	Cc1cc(C(=O)O)ccc1OC[C@H](C)COc1ccc(C(=O)CC(C)(C)C)c(O)c1C
512 nM	892 nM	144%	120%	–	–	–	–	–	Cc1ccc(C(=O)O)cc1OCCCCOc1ccc(C(=O)CC(C)(C)C)c(O)c1C
–	–	–	–	–	Not Active	inactive	–	–	COC(=O)c1cc(OCCCCOc2ccc(C(=O)CC(C)(C)C)c(O)c2C)ccc1F
> 10000 nM	–	–	107%	–	Not Active	inactive	–	–	Cc1c(OCCCCOc2ccc(F)c(C(N)=O)c2)ccc(C(=O)CC(C)(C)C)c1O
222 nM	1300 nM	87%	98%	–	–	–	–	–	Cc1c(OCC(C)COc2ccc(C(=O)O)cc2F)ccc(C(=O)CC(C)(C)C)c1O (single isomer, unassigned)
87 nM	130 nM	87%	112%	–	–	–	–	–	Cc1c(OCCCCOc2ccc(Cl)c(C(=O)O)c2)ccc(C(=O)CC(C)(C)C)c1O

The remaining lines, values behind:

Compound	EC50 ([1]; read-out: EC50)	EC50 ([2]; read-out: EC50)	Activity [3, 6]	Activity [4, 6]	EC50 [1]	EC50 [2]	Activity [3]	Activity [4]	Activity [5]
COc1ccccc1OCC(C)COc1ccc(C(=O)CC(C)(C)C)c(O)c1C (single isomer, unassigned)	–	–	–	–	Not Active	Not Active	inactive	inactive	–
COc1ccc(C(=O)O)cc1O[C@H](C)COc1ccc(C(=O)CC(C)(C)C)c(O)c1C	–	1850 nM	111%	–	–	–	–	–	–
COc1ccc(C(=O)N(C)C)cc1OCC(C)COc1ccc(C(=O)CC(C)(C)C)c(O)c1C (single isomer, unassigned)	5060 nM	–	–	82%	–	Not Active	inactive	–	–
COc1ccc(C(=O)O)cc1OC[C@@H](C)COc1ccc(C(=O)CC(C)(C)C)c(O)c1C	–	1040 nM	120%	–	–	–	–	–	–
Cc1c(O[C@@H](C)COc2ccc(F)c(C(=O)O)c2)ccc(C(=O)CC(C)(C)C)c1O	257 nM	1120 nM	89%	114%	–	–	–	–	–
COc1ccc(C(=O)O)cc1OC[C@@H](C)Oc1ccc(C(=O)CC(C)(C)C)c(O)c1C	78 nM	806 nM	97%	114%	–	–	–	–	–
COc1ccc(OCCCCOc2ccc(C(=O)CC(C)(C)C)c(O)c2C)cc1	> 10000 nM	–	–	103%	–	Not Active	inactive	–	–
Cc1cc(OC[C@H](C)COc2ccc(C(=O)CC(C)(C)C)c(O)c2C)ccc1C(=O)O	305 nM	1350 nM	80%	91%	–	–	–	–	–
COc1ccc(C(=O)O)cc1OC[C@H](C)COc1ccc(C(=O)CC(C)(C)C)c(O)c1C	63 nM	384 nM	111%	98%	–	–	–	–	Active
Cc1c(O[C@H](C)COc2ccc(F)c(C(=O)O)c2)ccc(C(=O)CC(C)(C)C)c1O	83 nM	2410 nM	79%	118%	–	–	–	–	–
COc1cccc(OC[C@H](C)COc2ccc(C(=O)CC(C)(C)C)c(O)c2C)c1	–	–	–	–	Not Active	Not Active	inactive	inactive	–
Cc1c(OC[C@@H](C)COc2ccc(C(=O)O)c(Cl)c2)ccc(C(=O)CC(C)(C)C)c1O	50 nM	860 nM	93%	107%	–	–	–	–	–
Cc1c(OC[C@@H](C)COc2ccc(Cl)c(C(=O)O)c2)ccc(C(=O)CC(C)(C)C)c1O	377 nM	2200 nM	73%	120%	–	–	–	–	–
Cc1c(OCC(C)COc2ccc(C(=O)O)cc2Cl)ccc(C(=O)CC(C)(C)C)c1O (single isomer, unassigned)	477 nM	1650 nM	98%	97%	–	–	–	–	–
Cc1c(OC[C@H](C)COc2ccc(F)c(C(=O)O)c2)ccc(C(=O)CC(C)(C)C)c1O	294 nM	651 nM	87%	114%	–	–	–	–	–
Cc1c(OC[C@@H](C)COc2ccc(F)c(C(=O)O)c2)ccc(C(=O)CC(C)(C)C)c1O	112 nM	1180 nM	92%	99%	–	–	–	–	–
COc1cc(C(=O)O)ccc1OC[C@H](C)COc1ccc(C(=O)CC(C)(C)C)c(O)c1C	28 nM	512 nM	93%	110%	–	–	–	–	–
Cc1c(OC[C@@H](C)COc2ccc3c(c2)C(=O)NC3)ccc(C(=O)CC(C)(C)C)c1O	> 10000 nM	–	–	50%	–	Not Active	inactive	–	–
Cc1c(OC[C@@H](C)Oc2ccc(F)c(C(=O)O)c2)ccc(C(=O)CC(C)(C)C)c1O	112 nM	1210 nM	117%	125%	–	–	–	–	–
COc1cc(OC[C@H](C)COc2ccc(C(=O)CC(C)(C)C)c(O)c2C)ccc1C(=O)O	194 nM	1460 nM	88%	94%	–	–	–	–	–
Cc1ccc(OC[C@H](C)COc2ccc(C(=O)CC(C)(C)C)c(O)c2C)cc1C(=O)O	–	> 10000 nM	48%	–	–	–	–	–	–
COc1ccc(C(=O)O)cc1OC[C@H](C)Oc1ccc(C(=O)CC(C)(C)C)c(O)c1C	–	3820 nM	71%	–	–	–	–	–	–
Cc1c(OC[C@H](C)Oc2ccc(F)c(C(=O)O)c2)ccc(C(=O)CC(C)(C)C)c1O	142 nM	1100 nM	105%	122%	–	–	–	–	–
Cc1c(OC[C@@H](C)COc2ccc(C(=O)O)c(F)c2)ccc(C(=O)CC(C)(C)C)c1O	261 nM	1090 nM	86%	94%	–	–	–	–	–
COc1ccc(C(=O)O)cc1O[C@@H](C)COc1ccc(C(=O)CC(C)(C)C)c(O)c1C	137 nM	2210 nM	91%	117%	–	–	–	–	–
